Measured values from the supplement of paper PMC8671470.

Legend:
Experiment in all cases: cell viability (% survival relative to DMSO control); higher = less cytotoxic
Conditions in all cases: 72 h
[1] = test system: myeloid leukemia patient primary cells Pat.9
Method in brief: (§1)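 Seventy compounds were pre-printed on 384-well plates at five tenfold concentrations between 1 and 10,000 nM, in duplicate. Thawed mononuclear cells purified by Ficoll from AML or CML patients were added at 10,000 cells/well in RPMI 1640 with 10% FBS for 72 h. Viability by CellTiter-Glo was normalised to DMSO and 10 μM proteasome-inhibitor wells. Where stated, area under the curve was taken from log-logistic fits made with the drc and PharmacoGx R packages, each fit having four parameters.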

[2] = test system: myeloid leukemia patient primary cells Pat.5
Method in brief: as §1

[3] = test system: myeloid leukemia patient primary cells Pat.4
Method in brief: as §1

[4] = test system: myeloid leukemia patient primary cells Pat.2
Method in brief: as §1

Sc1ncnc2nc[nH]c12 [6-mercaptopurine]
cell viability ([1]; 1 nM): 62.5% | cell viability ([1]; 10 nM): 68.1% | cell viability ([1]; 100 nM): 48.8% | cell viability ([1]; 1000 nM): 79.9% | cell viability ([1]; 10000 nM): 30.1% | cell viability ([2]; 1 nM): 8.91% | cell viability ([2]; 10 nM): 64.1% | cell viability ([2]; 100 nM): 35.4% | cell viability ([2]; 1000 nM): 17.2% | cell viability ([2]; 10000 nM): 1.33% | cell viability ([3]; 1 nM): 79.1% | cell viability ([3]; 10 nM): 80% | cell viability ([3]; 100 nM): 85.9% | cell viability ([3]; 1000 nM): 88.2% | cell viability ([3]; 10000 nM): 92.3% | cell viability ([4]; 1 nM): 95.6% | cell viability ([4]; 10 nM): > 100% | cell viability ([4]; 100 nM): 94% | cell viability ([4]; 1000 nM): 99.9% | cell viability ([4]; 10000 nM): > 100%

Cc1noc2c1-c1ccccc1C(c1ccc(Cl)cc1)=N[C@H]2CC(N)=O [CPI-0610]
cell viability ([1]; 1 nM): 83% | cell viability ([1]; 10 nM): 24.2% | cell viability ([1]; 100 nM): 88.3% | cell viability ([1]; 1000 nM): 6.03% | cell viability ([1]; 10000 nM): 11.5% | cell viability ([2]; 1 nM): 81.3% | cell viability ([2]; 10 nM): 12.4% | cell viability ([2]; 100 nM): 82.4% | cell viability ([2]; 1000 nM): 7.88% | cell viability ([2]; 10000 nM): 10.1% | cell viability ([3]; 1 nM): 82.5% | cell viability ([3]; 10 nM): 65.6% | cell viability ([3]; 100 nM): 58.1% | cell viability ([3]; 1000 nM): 6.43% | cell viability ([3]; 10000 nM): 7.38% | cell viability ([4]; 1 nM): 99.4% | cell viability ([4]; 10 nM): 97.6% | cell viability ([4]; 100 nM): 88.9% | cell viability ([4]; 1000 nM): 58.5% | cell viability ([4]; 10000 nM): 40.3%

Nc1ccn([C@@H]2O[C@H](CO)[C@@H](O)[C@@H]2O)c(=O)n1 [Cytarabine]
cell viability ([1]; 1 nM): 89.7% | cell viability ([1]; 10 nM): 18.1% | cell viability ([1]; 100 nM): 51.2% | cell viability ([1]; 1000 nM): 15.5% | cell viability ([1]; 10000 nM): 2.09% | cell viability ([2]; 1 nM): 84.9% | cell viability ([2]; 10 nM): 1.18% | cell viability ([2]; 100 nM): 24.7% | cell viability ([2]; 1000 nM): 1.18% | cell viability ([2]; 10000 nM): 2.01% | cell viability ([3]; 1 nM): 87.3% | cell viability ([3]; 10 nM): 88.5% | cell viability ([3]; 100 nM): 75.5% | cell viability ([3]; 1000 nM): 75.1% | cell viability ([3]; 10000 nM): 5.31% | cell viability ([4]; 1 nM): 99% | cell viability ([4]; 10 nM): 88.1% | cell viability ([4]; 100 nM): 95.9% | cell viability ([4]; 1000 nM): 89.1% | cell viability ([4]; 10000 nM): 37.3%

CCN(CC)CCN(Cc1ccc(-c2ccc(C(F)(F)F)cc2)cc1)C(=O)Cn1c(SCc2ccc(F)cc2)nc(=O)c2c1CCC2 [Darapladib]
cell viability ([1]; 1 nM): 37.7% | cell viability ([1]; 10 nM): 60.6% | cell viability ([1]; 100 nM): 25.1% | cell viability ([1]; 1000 nM): 2.92% | cell viability ([1]; 10000 nM): < 0% | cell viability ([2]; 1 nM): 12.5% | cell viability ([2]; 10 nM): 23.9% | cell viability ([2]; 100 nM): 5.8% | cell viability ([2]; 1000 nM): < 0% | cell viability ([2]; 10000 nM): 8.02% | cell viability ([3]; 1 nM): 73.2% | cell viability ([3]; 10 nM): 84.2% | cell viability ([3]; 100 nM): 67.9% | cell viability ([3]; 1000 nM): 83% | cell viability ([3]; 10000 nM): 0.925% | cell viability ([4]; 1 nM): 84.7% | cell viability ([4]; 10 nM): 95.9% | cell viability ([4]; 100 nM): 83% | cell viability ([4]; 1000 nM): 83.1% | cell viability ([4]; 10000 nM): < 0%

CC12CCC(O)CC1CCC1C2CCC2(C)C(C3=CC(=O)OC3)CCC12O (stereo not given) [Digitoxigenin]
cell viability ([1]; 1 nM): 79% | cell viability ([1]; 10 nM): 54.7% | cell viability ([1]; 100 nM): 13% | cell viability ([1]; 1000 nM): 5.35% | cell viability ([1]; 10000 nM): 4.43% | cell viability ([2]; 1 nM): 56.2% | cell viability ([2]; 10 nM): 38.7% | cell viability ([2]; 100 nM): 33.1% | cell viability ([2]; 1000 nM): 0.265% | cell viability ([2]; 10000 nM): 4.43% | cell viability ([3]; 1 nM): 89.8% | cell viability ([3]; 10 nM): 81.8% | cell viability ([3]; 100 nM): 81.6% | cell viability ([3]; 1000 nM): 5.88% | cell viability ([3]; 10000 nM): 1.81% | cell viability ([4]; 1 nM): 94.1% | cell viability ([4]; 10 nM): 95.3% | cell viability ([4]; 100 nM): 88.5% | cell viability ([4]; 1000 nM): 42.4% | cell viability ([4]; 10000 nM): 6.42%

C[C@H]1O[C@@H](O[C@H]2[C@@H](O)C[C@H](O[C@H]3[C@@H](O)C[C@H](O[C@H]4CC[C@@]5(C)[C@H](CC[C@@H]6[C@@H]5C[C@@H](O)[C@]5(C)[C@@H](C7=CC(=O)OC7)CC[C@]65O)C4)O[C@@H]3C)O[C@@H]2C)C[C@H](O)[C@@H]1O [Digoxin]
cell viability ([1]; 1 nM): 76% | cell viability ([1]; 10 nM): 65.2% | cell viability ([1]; 100 nM): 17.7% | cell viability ([1]; 1000 nM): 2.92% | cell viability ([1]; 10000 nM): 2.42% | cell viability ([2]; 1 nM): 82.9% | cell viability ([2]; 10 nM): 77.9% | cell viability ([2]; 100 nM): 9.05% | cell viability ([2]; 1000 nM): 2.24% | cell viability ([2]; 10000 nM): < 0% | cell viability ([3]; 1 nM): 93% | cell viability ([3]; 10 nM): 76.1% | cell viability ([3]; 100 nM): 67.4% | cell viability ([3]; 1000 nM): 3.24% | cell viability ([3]; 10000 nM): 4.37% | cell viability ([4]; 1 nM): 99.2% | cell viability ([4]; 10 nM): 96.8% | cell viability ([4]; 100 nM): 82.8% | cell viability ([4]; 1000 nM): 26.6% | cell viability ([4]; 10000 nM): 3.27%

Clc1ccc(COC(Cn2ccnc2)c2ccc(Cl)cc2Cl)cc1 (stereo not given) [Econazole]
cell viability ([1]; 1 nM): 55.9% | cell viability ([1]; 10 nM): 80.5% | cell viability ([1]; 100 nM): 43.2% | cell viability ([1]; 1000 nM): 25.8% | cell viability ([1]; 10000 nM): 3.7% | cell viability ([2]; 1 nM): 42.3% | cell viability ([2]; 10 nM): 90.6% | cell viability ([2]; 100 nM): 35.2% | cell viability ([2]; 1000 nM): 6.55% | cell viability ([2]; 10000 nM): 1.33% | cell viability ([3]; 1 nM): 88% | cell viability ([3]; 10 nM): 94.6% | cell viability ([3]; 100 nM): 81.7% | cell viability ([3]; 1000 nM): 88.5% | cell viability ([3]; 10000 nM): 74.9% | cell viability ([4]; 1 nM): 94.9% | cell viability ([4]; 10 nM): 91.2% | cell viability ([4]; 100 nM): 96.5% | cell viability ([4]; 1000 nM): 97.6% | cell viability ([4]; 10000 nM): 90%

C[C@]12O[C@H](C[C@]1(O)CO)n1c3ccccc3c3c4c(c5c6ccccc6n2c5c31)CNC4=O [Lestaurtinib]
cell viability ([1]; 1 nM): 56.2% | cell viability ([1]; 10 nM): 18.6% | cell viability ([1]; 100 nM): 19.5% | cell viability ([1]; 1000 nM): 5.6% | cell viability ([1]; 10000 nM): < 0% | cell viability ([2]; 1 nM): 22.6% | cell viability ([2]; 10 nM): 2.27% | cell viability ([2]; 100 nM): 10% | cell viability ([2]; 1000 nM): 11.2% | cell viability ([2]; 10000 nM): < 0% | cell viability ([3]; 1 nM): 93.5% | cell viability ([3]; 10 nM): 64.5% | cell viability ([3]; 100 nM): 8.79% | cell viability ([3]; 1000 nM): 31.2% | cell viability ([3]; 10000 nM): 2.37% | cell viability ([4]; 1 nM): 97.1% | cell viability ([4]; 10 nM): 79% | cell viability ([4]; 100 nM): 74.7% | cell viability ([4]; 1000 nM): 51.1% | cell viability ([4]; 10000 nM): 11.5%

CC(Cc1ccc(O)c(O)c1)C(C)Cc1ccc(O)c(O)c1 (stereo not given) [Masoprocol]
cell viability ([1]; 1 nM): 75.1% | cell viability ([1]; 10 nM): 87.1% | cell viability ([1]; 100 nM): 97.4% | cell viability ([1]; 1000 nM): 9.61% | cell viability ([1]; 10000 nM): 83.4% | cell viability ([2]; 1 nM): 57.1% | cell viability ([2]; 10 nM): 7.88% | cell viability ([2]; 100 nM): 76.6% | cell viability ([2]; 1000 nM): 21.6% | cell viability ([2]; 10000 nM): > 100% | cell viability ([3]; 1 nM): 77.7% | cell viability ([3]; 10 nM): 91.8% | cell viability ([3]; 100 nM): > 100% | cell viability ([3]; 1000 nM): 81.8% | cell viability ([3]; 10000 nM): 19.3% | cell viability ([4]; 1 nM): 98.7% | cell viability ([4]; 10 nM): 89.8% | cell viability ([4]; 100 nM): 90.3% | cell viability ([4]; 1000 nM): 87.7% | cell viability ([4]; 10000 nM): 68%

COc1c(C)c2c(c(O)c1C/C=C(\C)CCC(=O)O)C(=O)OC2 [Mycophenolic acid]
cell viability ([1]; 1 nM): 28% | cell viability ([1]; 10 nM): 63.2% | cell viability ([1]; 100 nM): 52% | cell viability ([1]; 1000 nM): 50.4% | cell viability ([1]; 10000 nM): 75% | cell viability ([2]; 1 nM): < 0% | cell viability ([2]; 10 nM): 62.9% | cell viability ([2]; 100 nM): 26% | cell viability ([2]; 1000 nM): 67.3% | cell viability ([2]; 10000 nM): > 100% | cell viability ([3]; 1 nM): 88.4% | cell viability ([3]; 10 nM): 95% | cell viability ([3]; 100 nM): 76.3% | cell viability ([3]; 1000 nM): 89.2% | cell viability ([3]; 10000 nM): 32.9% | cell viability ([4]; 1 nM): 97.4% | cell viability ([4]; 10 nM): 99.8% | cell viability ([4]; 100 nM): 82.1% | cell viability ([4]; 1000 nM): > 100% | cell viability ([4]; 10000 nM): 85.6%

CCOC(=O)N1c2ccc(C(F)(F)F)cc2[C@@H](N(Cc2cc(C(F)(F)F)cc(C(F)(F)F)c2)C(=O)OC)C[C@H]1CC [Torcetrapib]
cell viability ([1]; 1 nM): 45.1% | cell viability ([1]; 10 nM): 28.6% | cell viability ([1]; 100 nM): 68.9% | cell viability ([1]; 1000 nM): 48.8% | cell viability ([1]; 10000 nM): 5.45% | cell viability ([2]; 1 nM): 56.9% | cell viability ([2]; 10 nM): 0.265% | cell viability ([2]; 100 nM): 97.4% | cell viability ([2]; 1000 nM): 27.5% | cell viability ([2]; 10000 nM): 1.18% | cell viability ([3]; 1 nM): 86.9% | cell viability ([3]; 10 nM): 86% | cell viability ([3]; 100 nM): 74.1% | cell viability ([3]; 1000 nM): 97% | cell viability ([3]; 10000 nM): 56.7% | cell viability ([4]; 1 nM): 97.2% | cell viability ([4]; 10 nM): 84.4% | cell viability ([4]; 100 nM): 99.7% | cell viability ([4]; 1000 nM): 99.7% | cell viability ([4]; 10000 nM): 80.2%
